Results published in PubChem BioAssay (NCI).
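The compound was tested at five concentrations on cells cultured in 96-well plates, with a 48-hour exposure period. TGI is the concentration that stops growth completely.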

How the values were obtained:
Assay in all cases: inhibition of tumour cell growth, NCI panel, 48 h
786-0 renal = test system: 786-0 renal
A498 renal = test system: A498 renal
A549 NSCLC = test system: A549 NSCLC
ACHN renal = test system: ACHN renal
BT-549 breast = test system: BT-549 breast
CAKI-1 renal = test system: CAKI-1 renal
CCRF-CEM leukemia = test system: CCRF-CEM leukemia
COLO 205 colon = test system: COLO 205 colon
DU-145 prostate = test system: DU-145 prostate
EKVX NSCLC = test system: EKVX NSCLC
HCC-2998 colon = test system: HCC-2998 colon
HCT-116 colon = test system: HCT-116 colon
HCT-15 colon = test system: HCT-15 colon
HL-60(TB) leukemia = test system: HL-60(TB) leukemia
HOP-62 NSCLC = test system: HOP-62 NSCLC
HOP-92 NSCLC = test system: HOP-92 NSCLC
HS 578T breast = test system: HS 578T breast
HT29 colon = test system: HT29 colon
IGROV1 ovarian = test system: IGROV1 ovarian
KM12 colon = test system: KM12 colon
LOX IMVI melanoma = test system: LOX IMVI melanoma
M14 melanoma = test system: M14 melanoma
MALME-3M melanoma = test system: MALME-3M melanoma
MCF7 breast = test system: MCF7 breast
MDA-MB-231 breast = test system: MDA-MB-231 breast
MDA-MB-435 = test system: MDA-MB-435
MDA-N = test system: MDA-N
MOLT-4 leukemia = test system: MOLT-4 leukemia
NCI-H226 lung = test system: NCI-H226 lung
NCI-H460 lung = test system: NCI-H460 lung
NCI-H522 lung = test system: NCI-H522 lung
NCI/ADR-RES ovarian = test system: NCI/ADR-RES ovarian
OVCAR-3 ovarian = test system: OVCAR-3 ovarian
OVCAR-4 ovarian = test system: OVCAR-4 ovarian
OVCAR-5 ovarian = test system: OVCAR-5 ovarian
OVCAR-8 ovarian = test system: OVCAR-8 ovarian
PC-3 prostate = test system: PC-3 prostate
RXF 393 renal = test system: RXF 393 renal
SF-268 CNS = test system: SF-268 CNS
SF-295 CNS = test system: SF-295 CNS
SF-539 CNS = test system: SF-539 CNS
SK-MEL-2 melanoma = test system: SK-MEL-2 melanoma
SK-MEL-28 melanoma = test system: SK-MEL-28 melanoma
SK-MEL-5 melanoma = test system: SK-MEL-5 melanoma
SK-OV-3 ovarian = test system: SK-OV-3 ovarian
SN12C renal = test system: SN12C renal
SNB-19 CNS = test system: SNB-19 CNS
SNB-75 CNS = test system: SNB-75 CNS
SR leukemia = test system: SR leukemia
SW-620 colon = test system: SW-620 colon
T-47D breast = test system: T-47D breast
TK-10 renal = test system: TK-10 renal
U251 CNS = test system: U251 CNS
UACC-257 melanoma = test system: UACC-257 melanoma
UACC-62 melanoma = test system: UACC-62 melanoma
UO-31 renal = test system: UO-31 renal
K-562 leukemia = test system: K-562 leukemia
NCI-H23 lung = test system: NCI-H23 lung
RPMI-8226 leukemia = test system: RPMI-8226 leukemia

In the case of FC(F)(F)c1ccc2c(c1)nc(-c1ccc(Cl)cc1)n2CC1CCCN2CCCCC12 (centres undefined), the TGI (786-0 renal) is reported as 27 µM, the TGI (A498 renal) is reported as 27.5 µM and the TGI (A549 NSCLC) is reported as 29.5 µM. It also gave a TGI (ACHN renal) of 27.9 µM, a TGI (BT-549 breast) of 27.9 µM and a TGI (CAKI-1 renal) of 33.3 µM. It also gave a TGI (CCRF-CEM leukemia) of 36 µM, a TGI (COLO 205 colon) of 24.4 µM and a TGI (DU-145 prostate) of 30.4 µM. For the same compound, the TGI (EKVX NSCLC) was 23.4 µM, the TGI (HCC-2998 colon) was 26.7 µM and the TGI (HCT-116 colon) was 27.4 µM. The TGI (HCT-15 colon) was 28.8 µM, the TGI (HL-60(TB) leukemia) was 29.2 µM and the TGI (HOP-62 NSCLC) was 28.6 µM. The TGI (HOP-92 NSCLC) was 29.1 µM, the TGI (HS 578T breast) was 36.3 µM and the TGI (HT29 colon) was 19 µM. It also gave a TGI (IGROV1 ovarian) of 27.8 µM, a TGI (KM12 colon) of 41.8 µM and a TGI (LOX IMVI melanoma) of 29.8 µM. It also gave a TGI (M14 melanoma) of 28 µM, a TGI (MALME-3M melanoma) of 29.8 µM and a TGI (MCF7 breast) of 29.8 µM. For the same compound, the TGI (MDA-MB-231 breast) was 20.3 µM, the TGI (MDA-MB-435) was 35.8 µM and the TGI (MDA-N) was 29.9 µM. For the same compound, the TGI (MOLT-4 leukemia) was 13 µM, the TGI (NCI-H226 lung) was 31.4 µM and the TGI (NCI-H460 lung) was 31.4 µM. For the same compound, the TGI (NCI-H522 lung) was 26.5 µM, the TGI (NCI/ADR-RES ovarian) was 29.2 µM and the TGI (OVCAR-3 ovarian) was 33.6 µM. The TGI (OVCAR-4 ovarian) was 35.6 µM, the TGI (OVCAR-5 ovarian) was 21.4 µM and the TGI (OVCAR-8 ovarian) was 30.1 µM. For the same compound, the TGI (PC-3 prostate) was 23.7 µM, the TGI (RXF 393 renal) was 30.1 µM and the TGI (SF-268 CNS) was 27.5 µM. It also gave a TGI (SF-295 CNS) of 31.7 µM, a TGI (SF-539 CNS) of 28.8 µM and a TGI (SK-MEL-2 melanoma) of 30.2 µM. It also gave a TGI (SK-MEL-28 melanoma) of 30.8 µM, a TGI (SK-MEL-5 melanoma) of 27.1 µM and a TGI (SK-OV-3 ovarian) of 21.3 µM. The TGI (SN12C renal) was 26 µM, the TGI (SNB-19 CNS) was 31.2 µM and the TGI (SNB-75 CNS) was 21.7 µM. The TGI (SR leukemia) was 33.8 µM, the TGI (SW-620 colon) was 38.1 µM and the TGI (T-47D breast) was 39.8 µM. It also gave a TGI (TK-10 renal) of 28.5 µM, a TGI (U251 CNS) of 27.3 µM and a TGI (UACC-257 melanoma) of 28.7 µM. For the same compound, the TGI (UACC-62 melanoma) was 28.1 µM and the TGI (UO-31 renal) was 22.9 µM.

Work on O=c1oc2c/c(=C\c3ccc([N+](=O)[O-])cc3)c(=O)c3cccc1c3-2 yielded a TGI (786-0 renal) of over 100 µM, a TGI (A549 NSCLC) of over 100 µM and a TGI (ACHN renal) of over 100 µM. It also gave a TGI (BT-549 breast) of over 100 µM, a TGI (CCRF-CEM leukemia) of over 100 µM and a TGI (COLO 205 colon) of over 100 µM. It also gave a TGI (DU-145 prostate) of over 100 µM, a TGI (EKVX NSCLC) of over 100 µM and a TGI (HCC-2998 colon) of over 100 µM. The TGI (HCT-116 colon) was over 100 µM, the TGI (HCT-15 colon) was over 100 µM and the TGI (HL-60(TB) leukemia) was over 100 µM. For the same compound, the TGI (HOP-62 NSCLC) was over 100 µM, the TGI (HOP-92 NSCLC) was over 100 µM and the TGI (HS 578T breast) was over 100 µM. It also gave a TGI (HT29 colon) of over 100 µM, a TGI (IGROV1 ovarian) of over 100 µM and a TGI (K-562 leukemia) of over 100 µM. The TGI (KM12 colon) was over 100 µM, the TGI (LOX IMVI melanoma) was over 100 µM and the TGI (M14 melanoma) was over 100 µM. For the same compound, the TGI (MALME-3M melanoma) was over 100 µM, the TGI (MCF7 breast) was over 100 µM and the TGI (MDA-MB-231 breast) was over 100 µM. The TGI (MDA-MB-435) was over 100 µM, the TGI (MDA-N) was over 100 µM and the TGI (MOLT-4 leukemia) was over 100 µM. For the same compound, the TGI (NCI-H23 lung) was over 100 µM, the TGI (NCI-H460 lung) was over 100 µM and the TGI (NCI-H522 lung) was 90.5 µM. It also gave a TGI (NCI/ADR-RES ovarian) of over 100 µM, a TGI (OVCAR-3 ovarian) of over 100 µM and a TGI (OVCAR-5 ovarian) of over 100 µM. It also gave a TGI (OVCAR-8 ovarian) of over 100 µM, a TGI (PC-3 prostate) of over 100 µM and a TGI (RPMI-8226 leukemia) of over 100 µM. It also gave a TGI (SF-268 CNS) of over 100 µM, a TGI (SF-295 CNS) of over 100 µM and a TGI (SK-MEL-2 melanoma) of over 100 µM. For the same compound, the TGI (SK-MEL-28 melanoma) was over 100 µM, the TGI (SK-MEL-5 melanoma) was over 100 µM and the TGI (SK-OV-3 ovarian) was over 100 µM. For the same compound, the TGI (SN12C renal) was over 100 µM, the TGI (SNB-19 CNS) was over 100 µM and the TGI (SNB-75 CNS) was 88.6 µM. It also gave a TGI (SR leukemia) of over 100 µM, a TGI (SW-620 colon) of over 100 µM and a TGI (T-47D breast) of over 100 µM. For the same compound, the TGI (TK-10 renal) was 72.1 µM, the TGI (U251 CNS) was over 100 µM and the TGI (UACC-257 melanoma) was over 100 µM. For the same compound, the TGI (UACC-62 melanoma) was over 100 µM and the TGI (UO-31 renal) was over 100 µM.
